pEC50: −log10 of the molar value.

This note sets out measurements from US8716276B2, “Thiophenyl and pyrrolyl azepines as serotonin 5-HT2C receptor ligands and uses thereof” (Athersys, Inc., priority 2006, dated 2014).

The assay deals with T1, human 5HT2c receptor (VNV Isoform) (Homo sapiens, UniProt P28335, I156V/I160V).
T1 construct: expressed in transfected cells; host or cells: HEK 293 EBNA
T1 sequence (P28335 33-458 I156V/I160V): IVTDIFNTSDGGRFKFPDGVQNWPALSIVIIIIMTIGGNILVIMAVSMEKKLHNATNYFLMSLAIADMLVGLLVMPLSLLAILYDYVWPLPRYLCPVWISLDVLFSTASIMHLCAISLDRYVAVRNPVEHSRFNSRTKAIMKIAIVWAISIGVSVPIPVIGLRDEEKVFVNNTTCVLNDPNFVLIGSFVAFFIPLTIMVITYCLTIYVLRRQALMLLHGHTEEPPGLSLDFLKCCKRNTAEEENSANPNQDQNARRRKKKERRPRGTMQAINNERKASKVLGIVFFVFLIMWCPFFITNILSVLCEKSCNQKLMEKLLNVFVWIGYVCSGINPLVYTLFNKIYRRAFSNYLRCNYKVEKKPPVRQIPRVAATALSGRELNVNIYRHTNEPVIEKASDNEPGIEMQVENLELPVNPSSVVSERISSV
The assay can be described thus: Calcium mobilization (FLIPR) 5HT2c receptor agonist assay. It is filed as cell-based. Conditions: HEK 293 EBNA cells expressing human 5HT2c receptor (VNV isoform), agonist-induced calcium fluorescence, read-out: 5-HT2c EC50 (hVNV). How it is done: The following procedure was utilized to evaluate representative compounds of the present invention as 5HT2c, receptor agonists.
5HT was utilized as a positive control. Ligand-induced calcium release and consequent fluorescence was measured on a Fluorometric Imaging Plate Reader (FLIPR, Molecular Device, CA).
All data were analyzed by nonlinear least square curve fitting using Prism 4.0 software. Agonist stimulation of calcium-induced fluorescence in FLIPR was fitted to sigmoidal dose response using equation Y=Bottom+(Top−Bottom)/(1+10^((Log EC50−X))), where X is the logarithm of concentration of compounds and Y is the fluorescent response.
(Calcium flux is commonly read through the fluorescence of an indicator in the cells.)
Turning to `CC(c1cc2c(s1)CCNCC2)C(F)(F)F` (racemic) [Example 4, (R,S)-2-(2,2,2-Trifluoro-1-methyl-ethyl)-5,6,7,8-tetrahydro-4H-thieno[2,3-d]azepine], the pEC50 (usually the negative decadic logarithm of the EC50, by convention in mol/L) was more than 8.00.
To `FC(F)(F)C1CCc2c1sc1c2CCNCC1` (racemic) [Example 6, (R,S)-1-Trifluoromethyl-1,2,3,4,5,6,7,8-octahydro-9-thia-6-aza-cyclopenta[a]azulene] belongs more than 8.00; to `CC1(C)CC(C(F)(F)F)c2sc3c(c21)CCNCC3` (racemic) [Example 7, (R,S)-3,3-Dimethyl-1-trifluoromethyl-1,2,3,4,5,6,7,8-octahydro-9-thia-6-aza-cyclopenta[a]azulene], more than 6.00.
To `CC1CNCCc2sc(C(=O)C(C)(C)C)cc21` (racemic) [Example 11, (R,S)-2,2-Dimethyl-1-(4-methyl-5,6,7,8-tetrahydro-4H-thieno[2,3-d]azepin-2-yl)-propan-1-one] belongs more than 7.00; to `FC(F)(F)Cc1sc2c3c1CCC3CNCC2` (racemic) [Example 13, (R,S)-2-(2,2,2-Trifluoro-ethyl)-4,4a,5,6,7,8-hexahydro-3H-1-thia-6-aza-cyclopenta[cd]azulene], more than 7.00.
To `CC1(C)CC2CNCCc3sc(Br)c1c32` (racemic) [Example 14, (R,S)-2-Bromo-3,3-dimethyl-4,4a,5,6,7,8-hexahydro-3H-1-thia-6-aza-cyclopenta[cd]azulene] belongs more than 6.00; to `CC1Cc2cc(Br)sc2CCN1` (racemic) [Example 15, (R,S)-2-Bromo-5-methyl-5,6,7,8-tetrahydro-4H-thieno[2,3-d]azepine], more than 6.00.
Consider `CC1CNCCc2sc3c(c21)C(C)(C)CC3C(F)(F)F` (single isomer, unassigned) [17 Diastereomer 1], for which the pEC50 is more than 7.00.
For `CC1CNCCc2sc3c(c21)C(C)(C)CC3C(F)(F)F` (single isomer, unassigned) [17 Diastereomer 2], the pEC50 is more than 6.00.
With `CC1CNCCc2sc(CC(F)(F)F)c(Br)c21` (single isomer, unassigned) [Example 9, 3-Bromo-4-methyl-2-(2,2,2-trifluoro-ethyl)-5,6,7,8-tetrahydro-4H-thieno[2,3-d]azepine], the pEC50 was more than 7.00.
As to `CCS(=O)(=O)c1sc2c(c1C)C(C)CNCC2` (single isomer, unassigned) [Example 10, 2-Ethanesulfonyl-3,4-dimethyl-5,6,7,8-tetrahydro-4H-thieno[2,3-d]azepine], the pEC50 is more than 7.00.
Take `CC1CNCCc2sc(C(=O)C(C)(C)C)c(Br)c21` (single isomer, unassigned) [Example 12, 1-(3-Bromo-4-methyl-5,6,7,8-tetrahydro-4H-thieno[2,3-d]azepin-2-yl)-2,2-dimethyl-propan-1-one]: the pEC50 is more than 7.00.
`CC1CNCCc2sc3c(c21)CCC3C(F)(F)F` (single isomer, unassigned) [Example 16, 4-Methyl-1-trifluoromethyl-1,2,3,4,5,6,7,8-octahydro-9-thia-6-aza-cyclopenta[a]azulene]: the pEC50 is more than 7.00.
To `Cc1c(C(=O)C(C)(C)C)sc2c1CCNCC2` [Example 1, 2,2-Dimethyl-1-(3-methyl-5,6,7,8-tetrahydro-4H-thieno[2,3-d]azepin-2-yl)-propan-1-one] belongs more than 7.00; to `FC(F)(F)Cc1sc2c(c1Br)CCNCC2` [Example 2, 3-Bromo-2-(2,2,2-trifluoro-ethyl)-5,6,7,8-tetrahydro-4H-thieno[2,3-d]azepine], more than 8.00; to `O=S(=O)(c1ccccc1)c1cc2c(s1)CCNCC2` [Example 3, 2-Benzenesulfonyl-5,6,7,8-tetrahydro-4H-thieno[2,3-d]azepine], more than 8.00.
As to `CCS(=O)(=O)c1cc2c(s1)CCNCC2` [Example 5, 2-Ethanesulfonyl-5,6,7,8-tetrahydro-4H-thieno[2,3-d]azepine], the negative-log EC50 (pEC50) was more than 8.00.
For `CC(C)(c1cc2c(s1)CCNCC2)C(F)(F)F` [Example 8, 2-(2,2,2-Trifluoro-1,1-dimethyl-ethyl)-5,6,7,8-tetrahydro-4H-thieno[2,3-d]azepine], the pEC50 was more than 7.00.
The figure for `CC(C)(C)C(=O)c1cc2c(s1)CCNCC2` [Example 18, 2,2-Dimethyl-1-(5,6,7,8-tetrahydro-4H-thieno[2,3-d]azepin-2-yl)-propan-1-one] is more than 8.00.
Take `CC(C)(C)C(=O)c1sc2c(c1Cl)CCNCC2` [Example 19, 1-(3-Chloro-5,6,7,8-tetrahydro-4H-thieno[2,3-d]azepin-2-yl)-2,2-dimethyl-propan-1-one]: the pEC50 was more than 7.00.
